Test results: US6518339B1, “Aldehyde emission reduction for dibenzylidene sorbitol clarified plastics” (Milliken & Company, priority 2000, dated 2003)

Legend:
[1] = Water solubility of the hydrazide/aldehyde reaction product; type: physicochemical; conditions: tap water; precipitate from adipic dihydrazide and 4-methylbenzaldehyde
Description: The reaction product of hydrazide and aldehyde was then tested for water solubility. The test involved the following: To a 10-ounce sample vial was charged 30 ml of tap water and 0.14 g (0.8 mmol) of adipic dihydrazide. This mixture was shaken until a clear, colorless solution was obtained. 4-Methylbezaldehyde (0.14 g, 1.3 mmol) was added to the solution and the mixture was shaken for one minute, immediately precipitating a white solid. The mixture was then allowed to stand for an additional ten minutes, followed by collection of the solids by suction filtration to obtain […] of the (bis 4-methyl)adiponylbis(hydrazone).

[2] = Retort test, UV/VIS measurement of extracted aldehyde (Japanese Pharmacopoeia protocol); conditions: hydrazide in formulation with 3,4-DMDBS, versus 3,4-DMDBS alone
Description: Testing was then conducted to determine the extent of aldehyde extraction from the compounded plastics. The testing procedures were as follows: Retort testing was performed per the Japanese Pharmacopoeia protocol (Japanese Pharmacopoeia, 13th ed. 1996: 76-82). Seven 50-mil plaques of each formulation were cut into 9 strips, rinsed with water, and placed into clean 1 quart Mason jars containing 200 ml of deionized water. The jars were covered with aluminum foil and autoclaved for 1 hour. The extraction water was then analyzed for UV absorbance between 220-240 nm and from 241-350 nm, after a suitable blank had been tested. Powderless latex gloves were worn during the entire procedure.

Structure (SMILES)	Water solubility, in words [1]	melting point [°C]	Reduction of peak absorbance between 220-240 nm [2] [%]	Reduction of peak absorbance between 241-350 nm [2] [%]
Cc1ccc(C=NNC(=O)CCCCC(=O)NN=Cc2ccc(C)cc2)cc1 [(bis 4-methyl)adiponylbis(hydrazone)]	substantially insoluble in water	–	–	–
NNC(=O)CCCCC(=O)NN [Example 2, Adipic dihydrazide]	–	182.5 to 185.5	–	–
NNC(=O)CCCC(=O)NN [Example 4, Glutaric dihydrazide]	–	176.3 to 178.6	–	–
NNC(=O)CCCCCC(=O)NN [Example 5, Pimelic dihydrazide]	–	183.2 to 185	70	80
NNC(=O)CCCCCCC(=O)NN [Example 6, Suberic dihydrazide]	–	186.9 to 189.1	–	–
